Measured values: ChEMBL document CHEMBL1201862, “PubChem BioAssay data set” (2004)
The source made the active and inactive calls.

Key:
[1] = target: Luciferin 4-monooxygenase (Photinus pyralis, UniProt P08659); assay: firefly luciferase enzyme inhibitors, dose response, biochemical, luminescence (AID 1891)
[2] = target: T1, Polyadenylate-binding protein 1 (Homo sapiens, UniProt P11940); assay: PABP1 MLLE–PAM2 binding inhibitor potency, dose response, biochemical, fluorescence polarization, FITC-PAM2 peptide (AID 602259); type: functional; settings: read-out: IC50_Mean
[3] = target: T2, Zinc finger protein mex-5 (Caenorhabditis elegans, UniProt Q9XUB2); assay: MEX-5/TCR-2 RNA interaction inhibitors, dose response, biochemical, C. elegans, fluorescence polarization (AID 1960)
T2 sequence (Q9XUB2 whole entry): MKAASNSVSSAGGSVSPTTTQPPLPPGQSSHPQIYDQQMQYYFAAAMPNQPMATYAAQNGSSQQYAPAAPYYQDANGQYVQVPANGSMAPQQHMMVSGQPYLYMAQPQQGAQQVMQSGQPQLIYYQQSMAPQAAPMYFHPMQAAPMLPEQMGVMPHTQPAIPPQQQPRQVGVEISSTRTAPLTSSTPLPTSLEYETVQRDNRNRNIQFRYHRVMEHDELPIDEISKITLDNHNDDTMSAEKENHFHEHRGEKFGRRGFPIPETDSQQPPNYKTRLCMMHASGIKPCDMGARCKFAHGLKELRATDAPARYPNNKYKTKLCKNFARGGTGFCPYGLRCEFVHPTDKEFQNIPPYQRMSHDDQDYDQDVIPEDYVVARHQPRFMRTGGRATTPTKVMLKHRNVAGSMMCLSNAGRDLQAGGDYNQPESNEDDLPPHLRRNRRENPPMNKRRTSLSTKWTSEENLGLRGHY

[4] = target: T1, Polyadenylate-binding protein 1; assay: PABP1 MLLE–PAM2 interaction inhibitors, dose response, miRNA deadenylation inhibitor project, biochemical, fluorescence polarization, Cy5-PAM2 peptide, secondary (AID 602260); type: functional; settings: read-out: IC50_Mean
[5] = target: T3, RNA-binding protein pos-1 (Caenorhabditis elegans, UniProt G5EF15); assay: inhibitors of POS-1/mex-3 RNA binding, dose response, biochemical, fluorescence polarization (AID 1964);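 note: purified POS-1 fused to maltose binding protein made in E. coli; potency of compounds blocking POS-1 binding to fluorescent RNA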
T3 sequence (G5EF15 whole entry): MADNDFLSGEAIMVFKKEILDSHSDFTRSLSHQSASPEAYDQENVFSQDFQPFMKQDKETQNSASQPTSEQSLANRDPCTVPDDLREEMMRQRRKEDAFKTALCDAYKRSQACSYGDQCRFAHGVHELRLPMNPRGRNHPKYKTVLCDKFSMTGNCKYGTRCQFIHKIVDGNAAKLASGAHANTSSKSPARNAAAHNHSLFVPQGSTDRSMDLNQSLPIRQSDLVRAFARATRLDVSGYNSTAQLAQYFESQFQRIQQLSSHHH

[6] = Luminescence Cell-Based Dose Confirmation HTS to Identify Inhibitors of Platelet Dense Granule Release. [Related pubchem assays: 1663 (Primary HTS), 1678 (Summary of Project)]; type: functional
H4 = assay: Luminescence Cell-Based Dose Response HTS to Identify Activators of 5'UTR Stem-Loop Driven Prion Protein mRNA Translation in H4 Neuroglioblastoma Cells. [Related pubchem assays: 1829 (Project Summary), 1814 (Primary HTS)]; type: functional; settings: Homo sapiens
[7] = Luminescence Cell-Based Dose Response HTS to Identify Activators of Luciferase Translation or Activity in H4 […] Cells. [Related pubchem assays: 1829 (Project Summary), 1814 (Primary HTS)]; type: functional
[8] = Luminescence Cell-Based Dose Confirmation HTS to Identify Activators of 5'UTR Stem-Loop Driven Alpha-Synuclein mRNA Translation in H4 Neuroglioblastoma Cells. [Related pubchem assays: 1829 (Project Summary), 1814 (Primary HTS)]; type: functional
Leucine aminopeptidase = target: T4, Leucine aminopeptidase (Plasmodium falciparum 3D7, UniProt Q8IL11); assay: P. falciparum M17LAP inhibitors, primary screen, biochemical, fluorogenic H-Leu-NHMec substrate, 1536-well (AID 1619); type: functional
T4 sequence (Q8IL11 whole entry): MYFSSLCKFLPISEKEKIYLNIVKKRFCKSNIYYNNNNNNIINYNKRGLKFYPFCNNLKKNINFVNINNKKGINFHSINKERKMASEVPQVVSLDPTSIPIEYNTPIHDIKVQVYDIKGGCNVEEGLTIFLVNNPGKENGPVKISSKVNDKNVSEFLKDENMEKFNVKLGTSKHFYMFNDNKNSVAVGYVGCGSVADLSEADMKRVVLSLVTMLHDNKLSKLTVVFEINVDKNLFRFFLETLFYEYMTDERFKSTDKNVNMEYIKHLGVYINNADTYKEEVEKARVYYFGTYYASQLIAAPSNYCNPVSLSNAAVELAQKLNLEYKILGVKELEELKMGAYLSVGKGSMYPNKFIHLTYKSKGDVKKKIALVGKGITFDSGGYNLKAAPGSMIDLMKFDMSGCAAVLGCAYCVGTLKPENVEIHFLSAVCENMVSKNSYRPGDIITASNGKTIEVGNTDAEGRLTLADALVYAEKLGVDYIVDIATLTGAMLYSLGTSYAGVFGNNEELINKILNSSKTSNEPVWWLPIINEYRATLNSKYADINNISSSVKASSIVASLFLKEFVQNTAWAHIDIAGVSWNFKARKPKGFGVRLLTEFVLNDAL

Cytochrome P450 3A4 [9] = target: T5, Cytochrome P450 3A4 (Homo sapiens, UniProt P08684);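 note: CYP3A4 tested as one member of a cytochrome P450 panel screen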
Cytochrome P450 2C19 = Cytochrome P450 2C19 (Homo sapiens, UniProt P33261); assay: Cytochrome panel assay with activity outcomes. Panel member name: p450-cyp2c19 Compounds with AC50 equal or less than 10 uM are considered active; type: functional; settings: read-out: AC50
Cytochrome P450 2D6 = Cytochrome P450 2D6 (Homo sapiens, UniProt P10635);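 note: CYP2D6 member of a cytochrome P450 panel assay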
Cytochrome P450 2C9 [10] = target: T6, Cytochrome P450 2C9 (Homo sapiens, UniProt P11712)
Cytochrome P450 3A4 [11] = target: T5, Cytochrome P450 3A4; remark: listed apart in the source
Cytochrome P450 2C9 [12] = target: T6, Cytochrome P450 2C9; remark: listed apart in the source
Cytochrome P450 1A2 = target: T7, Cytochrome P450 1A2 (Homo sapiens, UniProt P05177);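 note: PubChem cytochrome P450 panel assay, CYP1A2 panel member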
T7 sequence (P05177 whole entry): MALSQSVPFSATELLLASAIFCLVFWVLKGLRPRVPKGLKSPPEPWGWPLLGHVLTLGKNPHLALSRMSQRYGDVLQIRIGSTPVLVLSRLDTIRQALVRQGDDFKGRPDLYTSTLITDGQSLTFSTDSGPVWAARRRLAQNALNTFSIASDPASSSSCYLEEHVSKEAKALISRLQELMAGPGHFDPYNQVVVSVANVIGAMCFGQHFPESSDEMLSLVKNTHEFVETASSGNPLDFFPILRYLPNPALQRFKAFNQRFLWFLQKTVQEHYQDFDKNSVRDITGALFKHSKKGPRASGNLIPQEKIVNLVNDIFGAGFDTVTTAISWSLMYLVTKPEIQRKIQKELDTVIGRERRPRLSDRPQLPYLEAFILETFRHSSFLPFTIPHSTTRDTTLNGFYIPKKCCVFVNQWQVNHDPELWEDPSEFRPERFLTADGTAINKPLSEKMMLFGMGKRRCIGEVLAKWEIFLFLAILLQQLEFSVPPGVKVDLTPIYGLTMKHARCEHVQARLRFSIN

[13] = growth suppression of beta-catenin-knockout colon cells, dose response, cell-based, HCT116, human colon tumor (AID 1045); type: functional;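 note: HCT116 colon tumor cells with beta catenin knocked out; cells exposed to compound for 60 hours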
[14] = growth suppression of PTEN-null colon cells, dose response, cell-based, HCT116 PTEN knockout (AID 1047); type: functional;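 note: HCT116 colon tumor cells with PTEN knocked out; cells exposed to compound for 60 hours before readout; potency for loss of cell viability measured by luminescence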

Luciferin 4-monooxygenase, sequence (P08659 whole entry): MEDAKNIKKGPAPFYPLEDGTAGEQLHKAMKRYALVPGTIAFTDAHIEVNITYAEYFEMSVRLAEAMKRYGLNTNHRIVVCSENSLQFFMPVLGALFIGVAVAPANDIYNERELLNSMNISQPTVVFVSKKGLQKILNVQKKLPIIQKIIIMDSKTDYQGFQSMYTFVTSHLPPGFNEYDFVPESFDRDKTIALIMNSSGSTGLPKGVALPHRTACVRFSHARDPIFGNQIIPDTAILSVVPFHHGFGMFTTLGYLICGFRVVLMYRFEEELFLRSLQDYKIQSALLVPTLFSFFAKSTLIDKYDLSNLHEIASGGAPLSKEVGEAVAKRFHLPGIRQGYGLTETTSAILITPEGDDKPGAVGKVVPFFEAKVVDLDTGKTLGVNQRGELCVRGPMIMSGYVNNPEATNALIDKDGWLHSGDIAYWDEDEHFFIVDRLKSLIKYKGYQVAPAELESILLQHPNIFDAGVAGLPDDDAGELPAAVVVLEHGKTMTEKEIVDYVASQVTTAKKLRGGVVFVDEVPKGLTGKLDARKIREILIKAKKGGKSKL
T6 sequence (P11712 whole entry): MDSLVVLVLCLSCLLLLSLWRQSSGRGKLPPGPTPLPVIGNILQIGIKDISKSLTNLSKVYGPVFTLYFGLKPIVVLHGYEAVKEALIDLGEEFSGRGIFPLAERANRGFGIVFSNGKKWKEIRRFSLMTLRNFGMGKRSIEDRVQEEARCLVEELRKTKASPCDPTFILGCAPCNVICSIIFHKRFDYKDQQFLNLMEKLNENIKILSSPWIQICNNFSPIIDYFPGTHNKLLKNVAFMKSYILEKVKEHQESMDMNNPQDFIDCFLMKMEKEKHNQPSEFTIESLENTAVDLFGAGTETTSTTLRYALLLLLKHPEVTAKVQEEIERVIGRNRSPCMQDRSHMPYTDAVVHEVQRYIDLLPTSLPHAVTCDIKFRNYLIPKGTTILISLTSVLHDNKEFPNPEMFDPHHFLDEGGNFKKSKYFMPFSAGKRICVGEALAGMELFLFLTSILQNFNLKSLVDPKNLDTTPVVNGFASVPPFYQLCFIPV
T5 sequence (P08684 whole entry): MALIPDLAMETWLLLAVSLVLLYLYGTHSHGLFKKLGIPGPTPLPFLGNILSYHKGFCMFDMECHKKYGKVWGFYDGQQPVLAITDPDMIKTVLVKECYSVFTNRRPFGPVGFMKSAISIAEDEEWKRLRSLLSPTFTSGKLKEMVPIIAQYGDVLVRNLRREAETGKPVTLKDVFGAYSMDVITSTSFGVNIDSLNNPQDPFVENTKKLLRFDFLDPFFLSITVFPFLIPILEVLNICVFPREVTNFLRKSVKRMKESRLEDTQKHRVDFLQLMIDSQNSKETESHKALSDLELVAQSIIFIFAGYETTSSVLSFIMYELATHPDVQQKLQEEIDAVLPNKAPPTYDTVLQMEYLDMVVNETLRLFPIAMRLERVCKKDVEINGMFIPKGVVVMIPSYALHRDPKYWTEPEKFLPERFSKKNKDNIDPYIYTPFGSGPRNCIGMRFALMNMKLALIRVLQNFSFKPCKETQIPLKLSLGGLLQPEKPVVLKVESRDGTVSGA
Cytochrome P450 2D6, sequence (P10635 whole entry): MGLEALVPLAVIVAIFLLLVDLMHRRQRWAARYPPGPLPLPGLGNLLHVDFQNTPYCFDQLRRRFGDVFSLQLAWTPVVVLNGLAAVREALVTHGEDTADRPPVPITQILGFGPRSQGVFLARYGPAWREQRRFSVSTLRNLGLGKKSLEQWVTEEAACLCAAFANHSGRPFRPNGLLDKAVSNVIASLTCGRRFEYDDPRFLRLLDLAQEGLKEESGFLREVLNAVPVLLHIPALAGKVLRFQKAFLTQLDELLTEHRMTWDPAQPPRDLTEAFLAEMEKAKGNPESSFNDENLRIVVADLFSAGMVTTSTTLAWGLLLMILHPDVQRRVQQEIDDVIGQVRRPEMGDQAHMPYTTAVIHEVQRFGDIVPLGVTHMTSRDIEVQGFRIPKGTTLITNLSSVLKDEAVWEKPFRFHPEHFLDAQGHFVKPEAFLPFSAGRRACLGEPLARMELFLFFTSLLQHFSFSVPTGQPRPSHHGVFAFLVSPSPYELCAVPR
T1 sequence (P11940 whole entry): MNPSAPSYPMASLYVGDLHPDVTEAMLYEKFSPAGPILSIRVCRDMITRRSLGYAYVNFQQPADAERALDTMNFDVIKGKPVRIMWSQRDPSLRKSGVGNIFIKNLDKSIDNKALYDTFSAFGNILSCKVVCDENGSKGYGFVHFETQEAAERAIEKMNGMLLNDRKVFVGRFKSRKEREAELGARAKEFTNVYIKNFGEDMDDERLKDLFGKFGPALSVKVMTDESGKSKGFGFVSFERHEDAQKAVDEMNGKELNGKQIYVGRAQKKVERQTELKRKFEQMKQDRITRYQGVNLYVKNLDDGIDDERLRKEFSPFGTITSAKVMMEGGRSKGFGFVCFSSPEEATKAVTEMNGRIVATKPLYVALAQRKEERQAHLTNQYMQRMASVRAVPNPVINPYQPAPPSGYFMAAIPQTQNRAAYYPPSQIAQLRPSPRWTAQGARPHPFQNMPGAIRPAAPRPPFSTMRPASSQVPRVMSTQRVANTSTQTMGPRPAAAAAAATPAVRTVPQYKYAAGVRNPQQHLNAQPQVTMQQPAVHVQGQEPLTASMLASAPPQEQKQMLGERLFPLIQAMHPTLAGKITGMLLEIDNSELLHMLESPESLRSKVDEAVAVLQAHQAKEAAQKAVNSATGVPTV
Cytochrome P450 2C19, sequence (P33261 whole entry): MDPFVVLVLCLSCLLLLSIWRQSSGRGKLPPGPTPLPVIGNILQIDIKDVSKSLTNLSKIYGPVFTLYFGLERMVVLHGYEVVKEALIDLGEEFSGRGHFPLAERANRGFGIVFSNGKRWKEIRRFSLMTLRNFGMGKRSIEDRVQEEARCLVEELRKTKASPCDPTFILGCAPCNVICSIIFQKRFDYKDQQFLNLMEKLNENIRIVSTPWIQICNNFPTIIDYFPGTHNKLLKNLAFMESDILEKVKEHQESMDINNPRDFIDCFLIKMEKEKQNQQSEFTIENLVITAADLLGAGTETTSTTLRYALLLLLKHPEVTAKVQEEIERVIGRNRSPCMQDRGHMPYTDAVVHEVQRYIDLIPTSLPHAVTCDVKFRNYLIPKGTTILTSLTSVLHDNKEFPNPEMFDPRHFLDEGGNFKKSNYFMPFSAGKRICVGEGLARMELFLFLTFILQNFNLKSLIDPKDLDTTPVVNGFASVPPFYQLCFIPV

## Cc1ccc(N=C(S)c2ccc3ccccc3n2)c(C)c1
[1]
  EC50: > 112 µM (not active)
[2]
  IC50: > 66 µM (inactive)
[3]
  EC50: > 300 µM (not active)
[4]
  IC50: > 66 µM (inactive)
[5]
  EC50: > 300 µM (not active)
[6]
  EC50: > 112 µM (not active)

## Cc1cccc(C(=N)NOC(=O)c2ccccc2Cl)c1
[1]
  EC50: 1.96 µM (active)
[6]
  EC50: 3.84 µM (active)

## CC(C)c1ccc(-c2cc(C(=O)NN3CCN(C)CC3)c3ccccc3n2)cc1
H4
  EC50: 9.4 µM (active)
[1]
  EC50: 18.2 µM (active)
[7]
  EC50: 3.27 µM (active)
[8]
  EC50: 3.59 µM (active)
[6]
  EC50: 5.93 µM (active)

## Cc1c(Nc2nc3ccccc3nc2NS(=O)(=O)c2cccc(Cl)c2)c(=O)n(-c2ccccc2)n1C
Leucine aminopeptidase
  IC50: 21.3 µM (active)

## CCC(=O)Nc1cccc(-c2nc3ccccc3c(=O)o2)c1
Cytochrome P450 3A4 [9]
  AC50: 28.2 µM (inconclusive)
Cytochrome P450 2C19
  AC50: 39.8 µM (inconclusive)
Cytochrome P450 2D6
  AC50: 31.6 µM (inconclusive)
Cytochrome P450 2C9 [10]
  AC50: inconclusive

## CCN(CC)CCO[C@H]1CC[C@@]2(C)C(=CC[C@@H]3[C@H]2CC[C@]2(C)C(=O)CC[C@H]32)C1
Cytochrome P450 3A4 [11]
  AC50: inconclusive

## O=C(NC1CCN(Cc2ccccc2)CC1)c1ccc(I)cc1
Cytochrome P450 2C9 [12]
  AC50: 39.8 µM (inconclusive)
Cytochrome P450 3A4 [11]
  AC50: inconclusive
Cytochrome P450 1A2
  AC50: 39.8 µM (inconclusive)

## C[C@@]12CC[C@@H]3[C@@H](CC[C@H]4C[C@@H](O)CC[C@]43C)[C@H]1CC[C@@H]2c1cc(C(F)(F)F)[nH]n1
Cytochrome P450 2C9 [12]
  AC50: 7.94 µM (inconclusive)
Cytochrome P450 3A4 [11]
  AC50: inconclusive

## CC1(C)CC(N2CCC(=O)NC2=S)CC(C)(C)N1
[1]
  EC50: > 112 µM (not active)
[6]
  EC50: > 112 µM (not active)

## O=C(OCC(=O)N1CCCC1)c1ccccc1OCc1ccccc1
Leucine aminopeptidase
  IC50: 4.38 µM (active)

## O=C(NCc1cccs1)C1CCN(S(=O)(=O)c2cccc3nsnc23)CC1
Cytochrome P450 2D6
  AC50: 6.31 µM (inconclusive)
Cytochrome P450 1A2
  AC50: 0.158 µM (inconclusive)
Cytochrome P450 2C9 [10]
  AC50: inconclusive

## C=CC[C@H](N)C(=O)O
Cytochrome P450 3A4 [11]
  AC50: inconclusive

## Cc1ccccc1-c1cc(NCCN2CCOCC2)ncn1
Cytochrome P450 3A4 [11]
  AC50: inconclusive
Cytochrome P450 1A2
  AC50: 31.6 µM (inconclusive)

## Cc1ccccc1-n1c(=O)cc(N2CC(C)OC(C)C2)[nH]c1=O (stereo unspecified)
Cytochrome P450 3A4 [11]
  AC50: inconclusive

## Cn1c(=O)c2cc(S(=O)(=O)NCCC(=O)NCCc3ccc(Cl)cc3)ccc2n(C)c1=O
Cytochrome P450 1A2
  AC50: 0.0398 µM (inconclusive)
Cytochrome P450 2C9 [10]
  AC50: inconclusive

## CO/N=C/c1ccc(N2CCN(C(=O)c3ccc(Cl)cc3Cl)CC2)c([N+](=O)[O-])c1
[13]
  EC50: 22.3 µM (active)
Cytochrome P450 3A4 [11]
  AC50: inconclusive
[14]
  EC50: 20.3 µM (active)

## Oc1cccc(/C=N/Nc2nn3cnnc3c3ccccc23)c1
[1]
  EC50: 5.06 µM (active)
[6]
  EC50: 18.8 µM (active)

## O=C(O)CCN1C(=O)CC(N2C(=O)/C(=C/c3ccc(Cl)cc3)SC2=S)C1=O (stereo unspecified)
Leucine aminopeptidase
  IC50: 22.5 µM (active)

## O=C(CCNC(=O)c1ccc(Br)o1)NCc1ccccn1
Cytochrome P450 3A4 [9]
  AC50: 14.1 µM (inconclusive)
Cytochrome P450 2C19
  AC50: 17.8 µM (inconclusive)
Cytochrome P450 1A2
  AC50: 14.1 µM (inconclusive)
Cytochrome P450 2C9 [10]
  AC50: inconclusive

## CCS(=O)(=O)N1CCC[C@H]2CN3CCc4cc(OC)ccc4[C@@H]3C[C@@H]21
Cytochrome P450 1A2
  AC50: 31.6 µM (inconclusive)
Cytochrome P450 2C9 [10]
  AC50: inconclusive

## Cc1ccc(O)c(N=Nc2ccccc2)n1
[1]
  EC50: 1.2 µM (active)
[6]
  EC50: < 0.701 µM (active)

## CSc1nc2ccccc2cc1/C=C(\C#N)c1ccccc1
Cytochrome P450 3A4 [11]
  AC50: inconclusive
